From patent US20190185417A1, “NOVEL ANTIBIOTICS” (priority 2016, published 2019)
Converted amounts (≈) assume the structure as drawn.

Assays:
Format in all cases: cell-based
[1] = system: Haemophilus influenzae (ATCC 49247); assay: MIC by broth microdilution; conditions: Table 2, Example 2
Protocol: (§1) The antibacterial potency of the test article(s) was measured using the in vitro broth microdilution assay under assay conditions described by the Clinical and Laboratory Standards Institute. […] The test substance was dissolved in 100% DMSO (unless stated below), suspended completely by sonication or vortexing, diluted by 2-fold serial titrations in the same vehicle, for a total of 11 test concentrations. A 4 μL aliquot of each dilution was added to 196 μL of broth medium seeded with the organism suspension in wells of a 96 well plate (bacterial count: 2−8×10^5 colony forming units/mL final). The final volume was 200 μL in each well and the final DMSO concentration was 2 percent. Following incubation, the test plates were visually examined and wells were scored for growth or complete growth inhibition to define the minimum inhibitory concentration. Each test substance was evaluated in duplicate and the results below are the duplicate test values. Vehicle-control and an active reference agent were used as blank and positive controls, respectively.

[2] = system: Gram-negative bacteria; assay: MIC by broth microdilution, overall statement in words; conditions: Example 1, statement in words
Protocol: as §1, with “DMSO,” for “DMSO (unless stated below),”, “incubation for 1 day at 36° C.,” for “incubation,”, “were reported as” for “below are”, “respectively. Microorganisms tested were Acinetobacter baumannii (ATCC 17978), Enterococcus faecalis (ATCC 29212), Enterococcus faecium VanA (ATCC 700221), Escherichia coli (ATCC 25922), Escherichia coli efflux defective DEL-tolC (JW5503), Heamophilus influenzae (ATCC 49247), Klebsiella pneumoniae (ATCC 43816), Pseudomonas aeruginosa (ATCC 27853), Pseudomonas aeruginosa MDR (NTUH-974), Staphylococcus aureus (ATCC 29213), Staphylococcus aureus MRSA (ATCC 33591) and Streptococcous pneumoniae (ATCC 46919). H. influenzae was grown in Haemophilus Test Medium and S. pneumoniae was grown in cation adjusted Muller-Hinton Broth II with 5% lysed horse blood. All other microorganisms were grown in cation adjusted Muller-Hinton Broth II.” for “respectively.”
as §1

[3] = system: Enterococcus faecalis (ATCC29212); assay: MIC by broth microdilution; conditions: Table 1, Example 1
Protocol: as §1, with “DMSO,” for “DMSO (unless stated below),”, “incubation for 1 day at 36° C.,” for “incubation,”, “were reported as” for “below are”, “respectively. Microorganisms tested were Acinetobacter baumannii (ATCC 17978), Enterococcus faecalis (ATCC 29212), Enterococcus faecium VanA (ATCC 700221), Escherichia coli (ATCC 25922), Escherichia coli efflux defective DEL-tolC (JW5503), Heamophilus influenzae (ATCC 49247), Klebsiella pneumoniae (ATCC 43816), Pseudomonas aeruginosa (ATCC 27853), Pseudomonas aeruginosa MDR (NTUH-974), Staphylococcus aureus (ATCC 29213), Staphylococcus aureus MRSA (ATCC 33591) and Streptococcous pneumoniae (ATCC 46919). H. influenzae was grown in Haemophilus Test Medium and S. pneumoniae was grown in cation adjusted Muller-Hinton Broth II with 5% lysed horse blood. All other microorganisms were grown in cation adjusted Muller-Hinton Broth II.” for “respectively.”

[4] = system: Enterococcus faecium, VanA (ATCC 700221); assay: MIC by broth microdilution; conditions: Table 1, Example 1
Protocol: as §1, with “DMSO,” for “DMSO (unless stated below),”, “incubation for 1 day at 36° C.,” for “incubation,”, “were reported as” for “below are”, “respectively. Microorganisms tested were Acinetobacter baumannii (ATCC 17978), Enterococcus faecalis (ATCC 29212), Enterococcus faecium VanA (ATCC 700221), Escherichia coli (ATCC 25922), Escherichia coli efflux defective DEL-tolC (JW5503), Heamophilus influenzae (ATCC 49247), Klebsiella pneumoniae (ATCC 43816), Pseudomonas aeruginosa (ATCC 27853), Pseudomonas aeruginosa MDR (NTUH-974), Staphylococcus aureus (ATCC 29213), Staphylococcus aureus MRSA (ATCC 33591) and Streptococcous pneumoniae (ATCC 46919). H. influenzae was grown in Haemophilus Test Medium and S. pneumoniae was grown in cation adjusted Muller-Hinton Broth II with 5% lysed horse blood. All other microorganisms were grown in cation adjusted Muller-Hinton Broth II.” for “respectively.”

[5] = system: Staphylococcus aureus, MRSA (ATCC 33591); assay: MIC by broth microdilution; conditions: Table 1, Example 1
Protocol: as §1, with “DMSO,” for “DMSO (unless stated below),”, “incubation for 1 day at 36° C.,” for “incubation,”, “were reported as” for “below are”, “respectively. Microorganisms tested were Acinetobacter baumannii (ATCC 17978), Enterococcus faecalis (ATCC 29212), Enterococcus faecium VanA (ATCC 700221), Escherichia coli (ATCC 25922), Escherichia coli efflux defective DEL-tolC (JW5503), Heamophilus influenzae (ATCC 49247), Klebsiella pneumoniae (ATCC 43816), Pseudomonas aeruginosa (ATCC 27853), Pseudomonas aeruginosa MDR (NTUH-974), Staphylococcus aureus (ATCC 29213), Staphylococcus aureus MRSA (ATCC 33591) and Streptococcous pneumoniae (ATCC 46919). H. influenzae was grown in Haemophilus Test Medium and S. pneumoniae was grown in cation adjusted Muller-Hinton Broth II with 5% lysed horse blood. All other microorganisms were grown in cation adjusted Muller-Hinton Broth II.” for “respectively.”

[6] = system: Streptococcus pneumoniae (ATCC 49619); assay: MIC by broth microdilution; conditions: Table 1, Example 1
Protocol: as §1, with “DMSO,” for “DMSO (unless stated below),”, “incubation for 1 day at 36° C.,” for “incubation,”, “were reported as” for “below are”, “respectively. Microorganisms tested were Acinetobacter baumannii (ATCC 17978), Enterococcus faecalis (ATCC 29212), Enterococcus faecium VanA (ATCC 700221), Escherichia coli (ATCC 25922), Escherichia coli efflux defective DEL-tolC (JW5503), Heamophilus influenzae (ATCC 49247), Klebsiella pneumoniae (ATCC 43816), Pseudomonas aeruginosa (ATCC 27853), Pseudomonas aeruginosa MDR (NTUH-974), Staphylococcus aureus (ATCC 29213), Staphylococcus aureus MRSA (ATCC 33591) and Streptococcous pneumoniae (ATCC 46919). H. influenzae was grown in Haemophilus Test Medium and S. pneumoniae was grown in cation adjusted Muller-Hinton Broth II with 5% lysed horse blood. All other microorganisms were grown in cation adjusted Muller-Hinton Broth II.” for “respectively.”

[7] = system: Staphylococcus aureus (ATCC 29213); assay: MIC by broth microdilution; conditions: Table 1, Example 1
Protocol: as §1, with “DMSO,” for “DMSO (unless stated below),”, “incubation for 1 day at 36° C.,” for “incubation,”, “were reported as” for “below are”, “respectively. Microorganisms tested were Acinetobacter baumannii (ATCC 17978), Enterococcus faecalis (ATCC 29212), Enterococcus faecium VanA (ATCC 700221), Escherichia coli (ATCC 25922), Escherichia coli efflux defective DEL-tolC (JW5503), Heamophilus influenzae (ATCC 49247), Klebsiella pneumoniae (ATCC 43816), Pseudomonas aeruginosa (ATCC 27853), Pseudomonas aeruginosa MDR (NTUH-974), Staphylococcus aureus (ATCC 29213), Staphylococcus aureus MRSA (ATCC 33591) and Streptococcous pneumoniae (ATCC 46919). H. influenzae was grown in Haemophilus Test Medium and S. pneumoniae was grown in cation adjusted Muller-Hinton Broth II with 5% lysed horse blood. All other microorganisms were grown in cation adjusted Muller-Hinton Broth II.” for “respectively.”

[8] = system: Pseudomonas aeruginosa (ATCC 27853); assay: MIC by broth microdilution
Protocol: as §1, with “DMSO,” for “DMSO (unless stated below),”, “incubation for 1 day at 36° C.,” for “incubation,”, “were reported as” for “below are”, “respectively. Microorganisms tested were Acinetobacter baumannii (ATCC 17978), Enterococcus faecalis (ATCC 29212), Enterococcus faecium VanA (ATCC 700221), Escherichia coli (ATCC 25922), Escherichia coli efflux defective DEL-tolC (JW5503), Heamophilus influenzae (ATCC 49247), Klebsiella pneumoniae (ATCC 43816), Pseudomonas aeruginosa (ATCC 27853), Pseudomonas aeruginosa MDR (NTUH-974), Staphylococcus aureus (ATCC 29213), Staphylococcus aureus MRSA (ATCC 33591) and Streptococcous pneumoniae (ATCC 46919). H. influenzae was grown in Haemophilus Test Medium and S. pneumoniae was grown in cation adjusted Muller-Hinton Broth II with 5% lysed horse blood. All other microorganisms were grown in cation adjusted Muller-Hinton Broth II.” for “respectively.”
as §1

[9] = system: Escherichia coli (ATCC 25922); assay: MIC by broth microdilution
Protocol: as §1, with “DMSO,” for “DMSO (unless stated below),”, “incubation for 1 day at 36° C.,” for “incubation,”, “were reported as” for “below are”, “respectively. Microorganisms tested were Acinetobacter baumannii (ATCC 17978), Enterococcus faecalis (ATCC 29212), Enterococcus faecium VanA (ATCC 700221), Escherichia coli (ATCC 25922), Escherichia coli efflux defective DEL-tolC (JW5503), Heamophilus influenzae (ATCC 49247), Klebsiella pneumoniae (ATCC 43816), Pseudomonas aeruginosa (ATCC 27853), Pseudomonas aeruginosa MDR (NTUH-974), Staphylococcus aureus (ATCC 29213), Staphylococcus aureus MRSA (ATCC 33591) and Streptococcous pneumoniae (ATCC 46919). H. influenzae was grown in Haemophilus Test Medium and S. pneumoniae was grown in cation adjusted Muller-Hinton Broth II with 5% lysed horse blood. All other microorganisms were grown in cation adjusted Muller-Hinton Broth II.” for “respectively.”
as §1

[10] = system: Klebsiella pneumoniae (ATCC 43816); assay: MIC by broth microdilution
Protocol: as §1, with “DMSO,” for “DMSO (unless stated below),”, “incubation for 1 day at 36° C.,” for “incubation,”, “were reported as” for “below are”, “respectively. Microorganisms tested were Acinetobacter baumannii (ATCC 17978), Enterococcus faecalis (ATCC 29212), Enterococcus faecium VanA (ATCC 700221), Escherichia coli (ATCC 25922), Escherichia coli efflux defective DEL-tolC (JW5503), Heamophilus influenzae (ATCC 49247), Klebsiella pneumoniae (ATCC 43816), Pseudomonas aeruginosa (ATCC 27853), Pseudomonas aeruginosa MDR (NTUH-974), Staphylococcus aureus (ATCC 29213), Staphylococcus aureus MRSA (ATCC 33591) and Streptococcous pneumoniae (ATCC 46919). H. influenzae was grown in Haemophilus Test Medium and S. pneumoniae was grown in cation adjusted Muller-Hinton Broth II with 5% lysed horse blood. All other microorganisms were grown in cation adjusted Muller-Hinton Broth II.” for “respectively.”
as §1

[11] = system: Acinetobacter baumannii (ATCC 17978); assay: MIC by broth microdilution
Protocol: as §1, with “DMSO,” for “DMSO (unless stated below),”, “incubation for 1 day at 36° C.,” for “incubation,”, “were reported as” for “below are”, “respectively. Microorganisms tested were Acinetobacter baumannii (ATCC 17978), Enterococcus faecalis (ATCC 29212), Enterococcus faecium VanA (ATCC 700221), Escherichia coli (ATCC 25922), Escherichia coli efflux defective DEL-tolC (JW5503), Heamophilus influenzae (ATCC 49247), Klebsiella pneumoniae (ATCC 43816), Pseudomonas aeruginosa (ATCC 27853), Pseudomonas aeruginosa MDR (NTUH-974), Staphylococcus aureus (ATCC 29213), Staphylococcus aureus MRSA (ATCC 33591) and Streptococcous pneumoniae (ATCC 46919). H. influenzae was grown in Haemophilus Test Medium and S. pneumoniae was grown in cation adjusted Muller-Hinton Broth II with 5% lysed horse blood. All other microorganisms were grown in cation adjusted Muller-Hinton Broth II.” for “respectively.”
as §1

[12] = system: Pseudomonas aeruginosa, MDR (NTUH-974); assay: MIC by broth microdilution
Protocol: as §1, with “DMSO,” for “DMSO (unless stated below),”, “incubation for 1 day at 36° C.,” for “incubation,”, “were reported as” for “below are”, “respectively. Microorganisms tested were Acinetobacter baumannii (ATCC 17978), Enterococcus faecalis (ATCC 29212), Enterococcus faecium VanA (ATCC 700221), Escherichia coli (ATCC 25922), Escherichia coli efflux defective DEL-tolC (JW5503), Heamophilus influenzae (ATCC 49247), Klebsiella pneumoniae (ATCC 43816), Pseudomonas aeruginosa (ATCC 27853), Pseudomonas aeruginosa MDR (NTUH-974), Staphylococcus aureus (ATCC 29213), Staphylococcus aureus MRSA (ATCC 33591) and Streptococcous pneumoniae (ATCC 46919). H. influenzae was grown in Haemophilus Test Medium and S. pneumoniae was grown in cation adjusted Muller-Hinton Broth II with 5% lysed horse blood. All other microorganisms were grown in cation adjusted Muller-Hinton Broth II.” for “respectively.”
as §1

[13] = system: Escherichia coli, efflux defective DEL-tolC (JW5503); assay: MIC by broth microdilution
Protocol: as §1, with “DMSO,” for “DMSO (unless stated below),”, “incubation for 1 day at 36° C.,” for “incubation,”, “were reported as” for “below are”, “respectively. Microorganisms tested were Acinetobacter baumannii (ATCC 17978), Enterococcus faecalis (ATCC 29212), Enterococcus faecium VanA (ATCC 700221), Escherichia coli (ATCC 25922), Escherichia coli efflux defective DEL-tolC (JW5503), Heamophilus influenzae (ATCC 49247), Klebsiella pneumoniae (ATCC 43816), Pseudomonas aeruginosa (ATCC 27853), Pseudomonas aeruginosa MDR (NTUH-974), Staphylococcus aureus (ATCC 29213), Staphylococcus aureus MRSA (ATCC 33591) and Streptococcous pneumoniae (ATCC 46919). H. influenzae was grown in Haemophilus Test Medium and S. pneumoniae was grown in cation adjusted Muller-Hinton Broth II with 5% lysed horse blood. All other microorganisms were grown in cation adjusted Muller-Hinton Broth II.” for “respectively.”
as §1

## CN(C)Cc1ccc(/C=C/c2cc(/C=C/c3ccc(CN(C)C)cc3)cc(/C=C/c3ccc(CN(C)C)cc3)c2)cc1 [Compound 2]
[1]
  MIC: >128 µg/mL
[2]
  activity against Gram-negative bacteria: active
[3]
  MIC: 4 µg/mL (≈ 7.2 µM)
[4]
  MIC: 2 µg/mL (≈ 3.6 µM)
[5]
  MIC: 4 µg/mL (≈ 7.2 µM)
[6]
  MIC: 32 µg/mL (≈ 57.6 µM)
[7]
  MIC: 4 µg/mL (≈ 7.2 µM)
[8]; Table 1, Example 1
  MIC: 64 µg/mL (≈ 115 µM)
[8]; Table 2, Example 2
  MIC: 64 µg/mL (≈ 115 µM)
[9]; Table 1, Example 1
  MIC: 8 µg/mL (≈ 14.4 µM)
[9]; Table 2, Example 2
  MIC: 8 µg/mL (≈ 14.4 µM)
[10]; Table 1, Example 1
  MIC: 16 µg/mL (≈ 28.8 µM)
[10]; Table 2, Example 2
  MIC: 16 µg/mL (≈ 28.8 µM)
[11]; Table 1, Example 1
  MIC: 16 µg/mL (≈ 28.8 µM)
[11]; Table 2, Example 2
  MIC: 16 µg/mL (≈ 28.8 µM)
[12]; Table 1, Example 1
  MIC: 32 µg/mL (≈ 57.6 µM)
[12]; Table 2, Example 2
  MIC: 32 µg/mL (≈ 57.6 µM)
[13]; Table 1, Example 1
  MIC: 4 µg/mL (≈ 7.2 µM)
[13]; Table 2, Example 2
  MIC: 4 µg/mL (≈ 7.2 µM)
